Results: article PMC10338316, “Functional and structural characterization of Streptococcus pneumoniae pyruvate kinase involved in fosfomycin resistance” (The Journal of Biological Chemistry, 2023)

Columns and labels:
SpPYK [1] = target: T1, SpPYK (Streptococcus pneumoniae, UniProt Q8DQ84); test: X-ray crystal structure (PEP; PEP/FBP at […] Å); type: binding; details: catalytic site, Mg2+ and K+
T1 construct: gene pykF; recombinant, E. coli BL21(DE3) derivative, His60 Ni resin (tag details in supplement); homotetramer; single pyk gene

SpPYK [2] = target: T1, SpPYK; test: X-ray crystal structure (oxalate; oxalate/FBP); type: binding; details: catalytic site; enolpyruvate analog; weak density for a second oxalate in the effector site
SpPYK [3] = target: T1, SpPYK; test: X-ray crystal structure (FBP, PEP/FBP at […] Å, oxalate/FBP); details: allosteric activator; effector binding site in the C domain
[4] = test system: Nc1ncnc2c1ncn2[C@@H]1O[C@H](COP(=O)(O)OP(=O)(O)O)[C@@H](O)[C@H]1O; test: purified protein; details: 3 mM PEP, 10 mM MgCl2, 100 mM KCl, 20 mM HEPES pH 7.5, 25 °C, Hill coefficient 1.47 ± 0.07
C=C(OP(=O)(O)O)C(=O)O = test: purified protein; details: 3 mM ADP, 10 mM MgCl2, 100 mM KCl, 20 mM HEPES pH 7.5, 25 °C, no effector, Hill coefficient 1.88 ± 0.10
SpPYK [5] = target: T1, SpPYK; test: lactate dehydrogenase coupled assay, NADH absorbance at […] nm; type: biochemical; details: allosteric activator (modest), 2 mM G6P; PEP varied, 3 mM ADP, pH 7.5, 25 °C
[6] = target: the molecule itself; test: crystal structure; X-ray crystal structures of SpPYK in six states (apo, oxalate, oxalate/FBP, FBP, PEP, PEP/FBP); vapor diffusion at 25 °C, 15 to 20 mg/ml protein in 20 mM HEPES pH 7.5, 150 mM NaCl, for the ligand-bound forms with 100 mM KCl, 20 mM MgCl2 and 5-20 mM ligand(s); protomers of the tetramer

C=C(OP(=O)(O)O)C(=O)O [PEP, phosphoenolpyruvate]
X-ray crystal structure (PEP; PEP/FBP at 1.8 Å) (SpPYK [1]): The bound PEP or oxalate is seen in the catalytic site

O=C(O)C(=O)O [oxalate]
X-ray crystal structure (oxalate; oxalate/FBP) (SpPYK [2]): The bound PEP or oxalate is seen in the catalytic site

O=P(O)(O)OC[C@H]1OC(O)(COP(=O)(O)O)[C@@H](O)[C@@H]1O (stereo partly shown) [FBP, fructose 1,6-bisphosphate]
X-ray crystal structure (FBP, PEP/FBP at 1.8 Å, oxalate/FBP) (SpPYK [3]): FBP is found at the effector binding site in the C domain

SpPYK (Streptococcus pneumoniae R6)
K0.5 [4]: 1.09 ± 0.06 mM
K0.5 (C=C(OP(=O)(O)O)C(=O)O): 1.36 ± 0.06 mM

O=P(O)(O)OC[C@H]1OC(O)[C@H](O)[C@@H](O)[C@@H]1O (stereo partly shown) [G6P, glucose 6-phosphate]
lactate dehydrogenase coupled assay, NADH absorbance at 340 nm (SpPYK [5]): only a modest activation effect was observed upon G6P addition

B1: Streptococcus pneumoniae pyruvate kinase (enzyme)
chain: MNKRVKIVATLGPAVEIRGGKKFGEDGYWGEKLDVEASAKNIAKLIEAGANTFRFNFSHGDHQEQGERMATVKLAEKIAGKKVGFLLDTKGPEIRTELFEGEAKEYSYKTGEKIRVATKQGIKSTREVIALNVAGALDIYDDVEVGRQVLVDDGKLGLRVVAKDDATREFEVEVENDGIIAKQKGVNIPNTKIPFPALAERDNDDIRFGLEQGINFIAISFVRTAKDVNEVRAICEETGNGHVQLFAKIENQQGIDNLDEIIEAADGIMIARGDMGIEVPFEMVPVYQKMIIKKVNAAGKVVITATNMLETMTEKPRATRSEVSDVFNAVIDGTDATMLSGESANGKYPLESVTTMATIDKNAQALLNEYGRLDSDSFERNSKTEVMASAVKDATSSMDIKLVVTLTKTGHTARLISKYRPNADILALTFDELTERGLMLNWGVIPMLTDAPSSTDDMFEIAERKAVEAGLVESGDDIVIVAGVPVGEAVRTNTMRIRTVR
notes: pyruvate kinase (PYK) of Streptococcus pneumoniae, wild type; the strain of the cloned gene and the construct limits are told only in the Supporting information; Homotetramer in the crystal structures; also called SpPYK; PYK
stoichiometry N [6]: 4
